From patent publication US4333938A, “Imino derivatives of 5-aminobenzodioxole-1,3 which are useful as medicaments” (Laboratoires Sarget, priority 1979, dated 1982)
Values joined by “and” are separate entries in the source; they are usually repeats but may differ in a detail not shown here. Equal entries are not always repeated.

How the values were obtained:
Wistar rat = test: oral toxicity (mortality) in the Wistar rat; type: in vivo
Method: (§1) The percentages of mortality produced by the compounds of this invention when administered orally to Swiss mice are shown in Table 1. The animals, free from specific pathogenic organisms were housed in an air conditioned room for 24 to 48 hours before the start of the experiment. They were separated into groups of 5 males and 5 females. The materials were administered to animals which had been fasted for 24 hours by means of a gastric tube in suspension in a 6% thickened julep using a volume equivalent to 0.1 ml per 10 g of body weight. […] They remained under observation for two weeks before being sacrificed and autopsied.
The toxicities of the compounds of Examples 2 and 3 were determined in the Wistar rat. The protocol which was followed was the same as that described for the mice, except that the compounds were administered in a volume equivalent to 0.5 ml per 100 g of body weight of rat. […] The product of Example 3 produced no mortality at 2000 mg/kg and 20% mortality at 3000 mg/kg.

phenylbenzoquinone (PBQ) = test: analgesic activity, phenylbenzoquinone (PBQ) challenge; type: in vivo; conditions: male Swiss mouse, oral
Method: The analgesic activity was determined in the male Swiss mouse using phenylbenzoquinone (PBQ) as the challenging agent (variation of the method of Siegmund et al, Proc. Soc. Exp. Biol. Med. […], 95, 729-31). […] The ED50 was determined by the method of Lichfield and Wilcoxon.

blood sugar level = test: antidiabetic activity, blood sugar level in streptozotocin hyperglycemic rats; type: in vivo, Female rats; design: key: NS: the difference between the blood sugar level in the treated animals and the control animals is not significant; the difference is significant by Student's test at p≤0.05; conditions: oral
Method: Female rats weighing 180-200 grams were given an intraperitoneal dose on day J0 of 100 mg/kg of streptozotocin in a 0.05 M citrate buffer at a pH of 4.5 calculated as 0.5 ml per 100 g of body weight. On day J2 hyperglycemic animals were selected by determining the blood sugar level by the orthotoludine method in a stream continuously removed from the retroorbital sinus. […] On day J3, without previous fasting, the selected animals received the treatment. This consisted of oral administration of the test compound in a 6% aqueous suspension of gum arabic at a volume of 0.5 ml per 100 g of body weight.
The animals were sacrificed one, two, or four hours after the treatment and their blood sugar levels were determined. Each group of animals was compared to a control group of animals which received only the suspension of gum arabic. Metformin was the substance chosen as the control.
The results are given in Table 8 which indicates the percentage of decrease in the blood sugar level produced by the treatment.

[1] = tested on: carrageenan-induced granulomas; test: activity on carrageenan-induced granulomas; type: in vivo, Male Wistar rats; conditions: for ED50: Rattus norvegicus, 24 h, dose which protects 50% of the animals to the extent of 30% with respect to wet weight of the granuloma, read-out: AD50 (the source's name)
Method: Male Wistar rats weighing 130 to 150 grams were given a subcutaneous injection in the central part of the skin of the back of 0.5 ml of an aqueous suspension of carrageenan. Two doses of the test substance are administered, one 30 minutes before and the other 6 hours after carrageenan. At the end of 24 hours the rats were sacrificed and the granulomas were removed and weighed before and after drying for 24 hours at 50° C. The difference in weight of the granulomas wet and dry represents the exudate
These AD50 are respectively 175(142-215) and 175(150-205) mg/kg.

[2] = oral toxicity (mortality) in the mouse; conditions: in vivo, Swiss mice
Method: as §1

[3] = tested on: edema produced by serotonin; test: inhibition of serotonin-induced edema; type: in vivo, Wistar rat; conditions: oral, 30 minutes before serotonin
Method: In the Wistar rat inflammation is induced by intrapedal injection of 0.1 ml of a 0.02% solution of serotonin in physiological serum. The test substance is administered orally 30 minutes before the serotonin and the edema is measured by plethysmometry one hour after its release.

cotton pellet granulomas = test: inhibition of cotton pellet granulomas; type: in vivo, male Sprague-Dawley rats; conditions: oral, daily for 10 days
Method: Two cotton pellets weighing 70 mg were implanted under the back skin of male Sprague-Dawley rats anesthetized with ether. Starting the next day, the compound was administered orally daily for 10 days. The rats were sacrificed and the pellets were removed and weighed before and after drying at 50° C. for 24 hours. The weights used were those obtained after deduction of the weight of the implants. The average of the quantities so calculated was determined for each group and compared to the averages of the control group.

stomachs = test: ulcerogenic activity; type: in vivo, female Wistar rat; conditions: 150 mg/kg daily
Method: The ulcerogenic activity was determined in the female Wistar rat using a variation of the procedure described by J. M. Lwoff, J. Pharmacol. 1971, 3, 1, 81-3. The test substance was administered daily for 3 days to the animals maintained on a aqueous diet. The stomachs were removed after 1, 2, and 3 days of treatment and the ulcerations were classified from 0 to 4. The ulceration index is calculated for each group of animals as the product (average of the classes x the percentage of animals afflicted), while distinguishing acute ulcerations from ulcers which were in the process of healing.

[4] = 50 mg/kg, treatment 1 h before sacrificing
[5] = 50 mg/kg, treatment 2 h before sacrificing
[6] = 50 mg/kg, treatment 4 h before sacrificing
[7] = 100 mg/kg, treatment 1 h before sacrificing
[8] = 100 mg/kg, treatment 2 h before sacrificing
[9] = 100 mg/kg, treatment 4 h before sacrificing
[10] = 200 mg/kg, treatment 1 h before sacrificing
[11] = 200 mg/kg, treatment 2 h before sacrificing
[12] = 200 mg/kg, treatment 4 h before sacrificing

For `Cc1ccc(C=Nc2ccc3c(c2)OCO3)s1` [Example 2, N-(5-methyl-2-thienylidene)-5-aminobenzodioxole-1,3], the “mortality (in words)” value (Wistar rat; 3000 mg/kg) was “no mortality”, the “% analgesic activity” value (phenylbenzoquinone (PBQ); 100 mg/kg) was 19% and the “% analgesic activity” value (phenylbenzoquinone (PBQ); 200 mg/kg) was 49%. For the same compound, the “% analgesic activity” value (phenylbenzoquinone (PBQ); 250 mg/kg) was 51%, the “% analgesic activity” value (phenylbenzoquinone (PBQ); 300 mg/kg) was 40% and the “Percentage Decrease in the Blood Sugar” value (blood sugar level; [4]) was 13%. The “Percentage Decrease in the Blood Sugar” value (blood sugar level; [5]) was 22%, the “Percentage Decrease in the Blood Sugar” value (blood sugar level; [6]) was 12% and the “Percentage Decrease in the Blood Sugar” value (blood sugar level; [7]) was 22%. For the same compound, the “Percentage Decrease in the Blood Sugar” value (blood sugar level; [8]) was 32%, the “Percentage Decrease in the Blood Sugar” value (blood sugar level; [9]) was 27% and the “Percentage Decrease in the Blood Sugar” value (blood sugar level; [10]) was 24%. For the same compound, the “Percentage Decrease in the Blood Sugar” value (blood sugar level; [11]) was 35%, the “Percentage Decrease in the Blood Sugar” value (blood sugar level; [12]) was 31% and the “Exudate, % activity” value ([1]; 100 mg/kg administered twice) was 31%. The “Exudate, % animals 30% protected” value ([1]; 100 mg/kg administered twice) was 62%, the “Exudate, % animals 30% protected” value ([1]; 150 mg/kg administered twice) was 25% and 14% and the “Weight of dry granuloma, % animals 30% protected” value ([1]; 150 mg/kg administered twice) was 25% and 14%. The “Weight of wet granuloma, % animals 30% protected” value ([1]; 150 mg/kg administered twice) was 25% and 14%, the “Exudate, % activity” value ([1]; 200 mg/kg administered twice) was 39% and the “Exudate, % animals 30% protected” value ([1]; 200 mg/kg administered twice) was 75%. The “Weight of dry granuloma, % activity” value ([1]; 200 mg/kg administered twice) was 41% and 22%, the “Weight of dry granuloma, % animals 30% protected” value ([1]; 200 mg/kg administered twice) was 75% and 50% and the “Weight of wet granuloma, % activity” value ([1]; 200 mg/kg administered twice) was 39% and 24%. The “Weight of wet granuloma, % animals 30% protected” value ([1]; 200 mg/kg administered twice) was 75% and 50%, the “Exudate, % activity” value ([1]; 300 mg/kg administered twice) was 18% and the “Exudate, % animals 30% protected” value ([1]; 300 mg/kg administered twice) was 2%. For the same compound, the “Weight of dry granuloma, % activity” value ([1]; 300 mg/kg administered twice) was 9%, the “Weight of dry granuloma, % animals 30% protected” value ([1]; 300 mg/kg administered twice) was 25% and the “Weight of wet granuloma, % activity” value ([1]; 300 mg/kg administered twice) was 18%. The “Weight of wet granuloma, % animals 30% protected” value ([1]; 300 mg/kg administered twice) was 25%, the ED50 [1] was 175 mg/kg and the mortality at 336 h ([2]; 750 mg/kg) was 10%. It also gave a mortality at 336 h ([2]; 1000 mg/kg) of 20%, a mortality at 336 h ([2]; 1250 mg/kg) of 0% and a mortality at 336 h ([2]; 1500 mg/kg) of 60%. For the same compound, the “% inhibitory activity on serotonin edema” value ([3]; 100 mg/kg) was 39%, the “% inhibitory activity on serotonin edema” value ([3]; 200 mg/kg) was 29% and the “% inhibitory activity on serotonin edema” value ([3]; 400 mg/kg) was 37%. For the same compound, the “% inhibition with respect to dry pellets” value (cotton pellet granulomas; dose 150) was 5%, the “% inhibition with respect to wet pellets” value (cotton pellet granulomas; dose 150) was 12% and the “% inhibition with respect to dry pellets” value (cotton pellet granulomas; dose 300) was 23%. For the same compound, the “% inhibition with respect to wet pellets” value (cotton pellet granulomas; dose 300) was 17%, the “Ulceration Index, acute” value (stomachs; Day 1) was 6 and the “Ulceration Index, healing” value (stomachs; Day 1) was 0. For the same compound, the “Ulceration Index, acute” value (stomachs; Day 2) was 2, the “Ulceration Index, healing” value (stomachs; Day 2) was 6 and the “Ulceration Index, acute” value (stomachs; Day 3) was 48. For the same compound, the “Ulceration Index, healing” value (stomachs; Day 3) was 28.
For `C(=Nc1ccc2c(c1)OCO2)c1cccnc1` [Example 3, N-(3-pyridylidene)-5-aminobenzodioxole-1,3], the “mortality (in words)” value (Wistar rat; 2000 mg/kg) was “no mortality”, the “% analgesic activity” value (phenylbenzoquinone (PBQ); 50 mg/kg) was 23% and the “% analgesic activity” value (phenylbenzoquinone (PBQ); 100 mg/kg) was 44%. The “% analgesic activity” value (phenylbenzoquinone (PBQ); 200 mg/kg) was 65%, the “% analgesic activity” value (phenylbenzoquinone (PBQ); 300 mg/kg) was 92% and the ED50 (phenylbenzoquinone (PBQ); method of Lichfield and Wilcoxon) was 110 mg/kg. The “Percentage Decrease in the Blood Sugar” value (blood sugar level; [4]) was 16%, the “Percentage Decrease in the Blood Sugar” value (blood sugar level; [5]) was “NS” and the “Percentage Decrease in the Blood Sugar” value (blood sugar level; [6]) was 23%. For the same compound, the “Percentage Decrease in the Blood Sugar” value (blood sugar level; [7]) was “NS”, the “Percentage Decrease in the Blood Sugar” value (blood sugar level; [8]) was 27% and the “Percentage Decrease in the Blood Sugar” value (blood sugar level; [9]) was 29%. The “Percentage Decrease in the Blood Sugar” value (blood sugar level; [10]) was “NS”, the “Percentage Decrease in the Blood Sugar” value (blood sugar level; [11]) was 19% and the “Percentage Decrease in the Blood Sugar” value (blood sugar level; [12]) was 28%. For the same compound, the “Exudate, % activity” value ([1]; 100 mg/kg administered twice) was 15% and 25%, the “Exudate, % animals 30% protected” value ([1]; 100 mg/kg administered twice) was 25% and 37% and the “Weight of dry granuloma, % activity” value ([1]; 100 mg/kg administered twice) was 12% and 22%. For the same compound, the “Weight of wet granuloma, % activity” value ([1]; 100 mg/kg administered twice) was 15% and 25%, the “Weight of wet granuloma, % animals 30% protected” value ([1]; 100 mg/kg administered twice) was 25% and 37% and the “Exudate, % activity” value ([1]; 200 mg/kg administered twice) was 27% and 34% and 38%. For the same compound, the “Weight of dry granuloma, % activity” value ([1]; 200 mg/kg administered twice) was 27% and 32% and 33%, the “Weight of wet granuloma, % activity” value ([1]; 200 mg/kg administered twice) was 27% and 33% and 34% and the “Exudate, % activity” value ([1]; 250 mg/kg administered twice) was 36%. The “Exudate, % animals 30% protected” value ([1]; 250 mg/kg administered twice) was 75%, the “Weight of dry granuloma, % activity” value ([1]; 250 mg/kg administered twice) was 33% and the “Weight of dry granuloma, % animals 30% protected” value ([1]; 250 mg/kg administered twice) was 62%. The “Weight of wet granuloma, % activity” value ([1]; 250 mg/kg administered twice) was 36%, the “Weight of wet granuloma, % animals 30% protected” value ([1]; 250 mg/kg administered twice) was 75% and the “Exudate, % activity” value ([1]; 300 mg/kg administered twice) was 35% and 43%. For the same compound, the “Exudate, % animals 30% protected” value ([1]; 300 mg/kg administered twice) was 87% and 75%, the “Weight of dry granuloma, % activity” value ([1]; 300 mg/kg administered twice) was 37% and 41% and the “Weight of dry granuloma, % animals 30% protected” value ([1]; 300 mg/kg administered twice) was 62% and 75%. For the same compound, the “Weight of wet granuloma, % activity” value ([1]; 300 mg/kg administered twice) was 35% and 43%, the “Weight of wet granuloma, % animals 30% protected” value ([1]; 300 mg/kg administered twice) was 87% and 75% and the ED50 [1] was 175 mg/kg. The mortality at 336 h ([2]; 500 mg/kg) was 0%, the mortality at 336 h ([2]; 1000 mg/kg) was 10% and the mortality at 336 h ([2]; 2000 mg/kg) was 100%. The “% inhibitory activity on serotonin edema” value ([3]; 100 mg/kg) was 27%, the “% inhibitory activity on serotonin edema” value ([3]; 200 mg/kg) was 21% and the “% inhibitory activity on serotonin edema” value ([3]; 400 mg/kg) was 26%. For the same compound, the “% inhibition with respect to dry pellets” value (cotton pellet granulomas; dose 150) was 5%, the “% inhibition with respect to wet pellets” value (cotton pellet granulomas; dose 150) was 0% and the “Ulceration Index, acute” value (stomachs; Day 1) was 6. For the same compound, the “Ulceration Index, healing” value (stomachs; Day 1) was 0, the “Ulceration Index, acute” value (stomachs; Day 2) was 20 and the “Ulceration Index, healing” value (stomachs; Day 2) was 6. The “Ulceration Index, acute” value (stomachs; Day 3) was 33 and the “Ulceration Index, healing” value (stomachs; Day 3) was 12.
